Laboratory results: patent US12448388B2, “PRMT5 inhibitors and uses thereof” (Gilead Sciences, Inc., priority 2023, dated 2025)

Test system: HCT116 MTAP-deleted cell lines
Assay: Cell viability assay (CellTiter-Glo, 7 days), HCT116 MTAP-deleted
Type: cell-based
Conditions: Homo sapiens, HCT-116; cell viability, HCT116 MTAP-deleted; class symbols; read-out: CC50
Experimental: Control compounds were analyzed in parallel each time for quality control. In Brief, on Day -1, a serial dilution of stock compounds in DMSO was performed using BioMek liquid handlers and dispensed using Echo acoustic dispenser into 384 well plates. Both tool compounds and sample compounds were spotted in the same plate for a dose response of PRMT5 inhibitors. Compound plates were stored as frozen until the cells were ready for seeding. […] After equilibrating the plate in room temperature, the cells were incubated for 7 days inside the sealed incubator set at 37° C. with 90% humidity and 5% CO2. On Day 7, the viability of cells was measured using a CTG assay kit (CellTitre-Glo;Promega cat no. G7573). Shortly, 40 μl per well of luminescent cell viability assay reagent were dispensed using EL460 liquid dispenser 5 μl cassette. CTG luminescence signal was measured using an EnVision plate reader (PerkinElmer) in accordance with manufacturer's instruction. […] Selectivity with * is artificially high due to limited solubility of the compound hampering accurate measurement of WT CC50.

Structure (SMILES)	CC50
Nc1nc2ccc(C(=O)N3CCO[C@@H]4Cc5cc(C(F)(F)F)ccc5[C@@H]43)cc2n2cncc12 (racemic) [Ff-33, Racemic (4-aminoimidazo[1,5-a]quinoxalin-8-yl)((4aS,9aR)-7-(trifluoromethyl)-2,3,9,9a-tetrahydroindeno[2,1-b][1,4]oxazin-4(4aH)-yl)methanone]	100 to 1000 nM
Nc1nc2cc(F)c(C(=O)N3CCO[C@@H]4Cc5cc(C(F)(F)F)ccc5[C@@H]43)cc2n2cncc12 (racemic) [Ff-34, Racemic (4-amino-7-fluoroimidazo[1,5-a]quinoxalin-8-yl)((4aS,9aR)-7-(trifluoromethyl)-2,3,9,9a-tetrahydroindeno[2,1-b][1,4]oxazin-4(4aH)-yl)methanone]	< 100 nM
Nc1nc2cc(Cl)c(C(=O)N3CCO[C@@H]4Cc5cc(C(F)(F)F)ccc5[C@@H]43)cc2n2cncc12 (racemic) [Ff-35, Racemic (4-amino-7-chloroimidazo[1,5-a]quinoxalin-8-yl)((4aS,9aR)-7-(trifluoromethyl)-2,3,9,9a-tetrahydroindeno[2,1-b][1,4]oxazin-4(4aH)-yl)methanone]	< 100 nM
Nc1nc2cc(F)c(C(=O)N3CCO[C@@H]4Cc5ccccc5[C@@H]43)cc2n2cncc12 (racemic) [Ff-36, Racemic(4-amino-7-fluoroimidazo[1,5-a]quinoxalin-8-yl)((4aS,9aR)-2,3,9,9a-tetrahydroindeno[2,1-b][1,4]oxazin-4(4aH)-yl)methanone]	100 to 1000 nM
Nc1nc2ccc(C(=O)N3CCO[C@@H]4Cc5cc(Br)ccc5[C@@H]43)cc2n2cncc12 (racemic) [Ff-37, Racemic (4-aminoimidazo[1,5-a]quinoxalin-8-yl)((4aS,9aR)-7-bromo-2,3,9,9a-tetrahydroindeno[2,1-b][1,4]oxazin-4(4aH)-yl)methanone]	100 to 1000 nM
C[C@@H]1OC[C@@H](N(C)C(=O)c2ccc3nc(N)c4cncn4c3c2)c2ccc(C(F)(F)F)cc21 (racemic) [Ff-41, Trans-4-amino-N-methyl-N-(trans-1-methyl-7-(trifluoromethyl)isochroman-4-yl)imidazo[1,5-a]quinoxaline-8-carboxamide]	< 100 nM
C[C@H]1OC[C@@H](N(C)C(=O)c2ccc3nc(N)c4cncn4c3c2)c2ccc(C(F)(F)F)cc21 (racemic) [Ff-42, Cis-4-amino-N-methyl-N-(1-methyl-7-(trifluoromethyl)isochroman-4-yl)imidazo[1,5-a]quinoxaline-8-carboxamide]	< 100 nM
C[C@H]1CN(C(=O)c2cc3c(cc2F)nc(N)c2cncn23)[C@H]2c3ccccc3C[C@H]2O1 (racemic) [Ff-55, Rac-(4-amino-7-fluoroimidazo[1,5-a]quinoxalin-8-yl)((2S,4aS,9aR)-2-methyl-2,3,9,9a-tetrahydroindeno[2,1-b][1,4]oxazin-4(4aH)-yl)methanone]	< 100 nM
C[C@@H]1CN(C(=O)c2cc3c(cc2F)nc(N)c2cncn23)[C@H]2c3ccccc3C[C@H]2O1 (racemic) [Ff-56, Rac-(4-amino-7-fluoroimidazo[1,5-a]quinoxalin-8-yl)((2R,4aS,9aR)-2-methyl-2,3,9,9a-tetrahydroindeno[2,1-b][1,4]oxazin-4(4aH)-yl)methanone]	100 to 1000 nM
COc1ccc2c(c1)CO[C@H]1CCN(C(=O)c3cc4c(cc3F)nc(N)c3cncn34)[C@@H]21 (racemic) [Ff-67, Rac-(4-amino-7-fluoroimidazo[1,5-a]quinoxalin-8-yl)((3aS,9bS)-7-methoxy-3,3a,5,9b-tetrahydroisochromeno[4,3-b]pyrrol-1(2H)-yl)methanone]	100 to 1000 nM
Nc1nc2ccc(C(=O)N3CC[C@H]4C[C@@H]3c3ccc(C(F)(F)F)cc34)cc2n2cncc12 (racemic) [Ff-74, (Rac)-(4-aminoimidazo[1,5-a]quinoxalin-8-yl)(7-(trifluoromethyl)-1,3,4,5-tetrahydro-2H-1,5-methanobenzo[c]azepin-2-yl)methanone]	100 to 1000 nM
CC1COC2Cc3cc(C(F)(F)F)ccc3C2N1C(=O)c1cc2c(cc1F)nc(N)c1cncn12 (racemic) [Ff-85, (4-amino-7-fluoroimidazo[1,5-a]quinoxalin-8-yl)(3-methyl-7-(trifluoromethyl)-2,3,9,9a-tetrahydroindeno[2,1-b][1,4]oxazin-4(4aH)-yl)methanone]	< 100 nM
Nc1nc2cc(F)c(C(=O)N3CCO[C@@H]4Cc5nc(C(F)(F)F)ccc5[C@@H]43)cc2n2cncc12 (racemic) [Ff-88, Rac-(4-amino-7-fluoroimidazo[1,5-a]quinoxalin-8-yl)((4aR,9bS)-7-(trifluoromethyl)-2,3,5,9b-tetrahydropyrido[3′,2′:3,4]cyclopenta[1,2-b][1,4]oxazin-1(4aH)-yl)methanone]	100 to 1000 nM
Nc1nc2cc(F)c(C(=O)N3CC[C@H]4C[C@@H]3c3ccc(C(F)(F)F)nc34)cc2n2cncc12 (racemic) [Ff-90, Rac-(4-amino-7-fluoroimidazo[1,5-a]quinoxalin-8-yl)((5R,9S)-2-(trifluoromethyl)-5,7,8,9-tetrahydro-6H-5,9-methanopyrido[3,2-c]azepin-6-yl)methanone]	100 to 1000 nM
Nc1nc2cc(Cl)c(C(=O)N3CC[C@H]4C[C@@H]3c3ccc(C(F)(F)F)nc34)cc2n2cncc12 (racemic) [Ff-91, Rac-(4-amino-7-chloroimidazo[1,5-a]quinoxalin-8-yl)((5R,9S)-2-(trifluoromethyl)-5,7,8,9-tetrahydro-6H-5,9-methanopyrido[3,2-c]azepin-6-yl)methanone]	< 100 nM
Cc1ncc2c(N)nc3cc(F)c(C(=O)N4CCC[C@@H]5Oc6cc(C(F)(F)F)ccc6[C@@H]54)cc3n12 (racemic) [Ff-99, Rac-(4-amino-7-fluoro-1-methylimidazo[1,5-a]quinoxalin-8-yl)(7-(trifluoromethyl)-3,4,4a,9b-tetrahydrobenzofuro[3,2-b]pyridin-1(2H)-yl)methanone]	< 100 nM
C[C@@H]1CC[C@@H]2Oc3cc(C(F)(F)F)ccc3[C@@H]2N1C(=O)c1cc2c(cc1F)nc(N)c1cncn12 (racemic) [Ff-100, Rac-(4-amino-7-fluoroimidazo[1,5-a]quinoxalin-8-yl)((2R,4aS,9bS)-2-methyl-7-(trifluoromethyl)-3,4,4a,9b-tetrahydrobenzofuro[3,2-b]pyridin-1(2H)-yl)methanone]	< 100 nM
Nc1nc2cc(F)c(C(=O)N3CCC[C@@H]4Oc5cc(F)c(F)cc5[C@@H]43)cc2n2cncc12 (racemic) [Ff-101, Rac-(4-amino-7-fluoroimidazo[1,5-a]quinoxalin-8-yl)((4aS,9bS)-7,8-difluoro-3,4,4a,9b-tetrahydrobenzofuro[3,2-b]pyridin-1(2H)-yl)methanone]	100 to 1000 nM
Nc1nc2cc(F)c(C(=O)N3CCC[C@@H]4Oc5c(ccc(F)c5F)[C@@H]43)cc2n2cncc12 (racemic) [Ff-102, Rac-(4-amino-7-fluoroimidazo[1,5-a]quinoxalin-8-yl)((4aS,9bS)-6,7-difluoro-3,4,4a,9b-tetrahydrobenzofuro[3,2-b]pyridin-1(2H)-yl)methanone]	100 to 1000 nM
C[C@@H]1CC[C@@H]2Oc3cc(C(F)(F)F)ccc3[C@@H]2N1C(=O)c1cc2c(cn1)nc(N)c1cncn12 (racemic) [Ff-106, Rac-(4-aminoimidazo[1,5-a]pyrido[3,4-e]pyrazin-8-yl)((2R,4aS,9bS)-2-methyl-7-(trifluoromethyl)-3,4,4a,9b-tetrahydrobenzofuro[3,2-b]pyridin-1(2H)-yl)methanone]	< 100 nM
Nc1nc2cc(F)c(C(=O)N3C[C@H](F)CC4Oc5cc(C(F)(F)F)ccc5[C@@H]43)cc2n2cncc12 (mixture of isomers) [Ff-112, Rac-(4-amino-7-fluoroimidazo[1,5-a]quinoxalin-8-yl)((3R,4aS,9bS)-3-fluoro-7-(trifluoromethyl)-3,4,4a,9b-tetrahydrobenzofuro[3,2-b]pyridin-1(2H)-yl)methanone]	< 100 nM
Nc1nc2cc(F)c(C(=O)N3CCC[C@@H]4Oc5cc(OC(F)F)c(F)cc5[C@@H]43)cc2n2cncc12 (racemic) [Ff-157, rac-(4-amino-7-fluoroimidazo[1,5-a]quinoxalin-8-yl)((4aS,9bS)-7-(difluoromethoxy)-8-fluoro-3,4,4a,9b-tetrahydrobenzofuro[3,2-b]pyridin-1(2H)-yl)methanone]	< 100 nM
Nc1nc2cc(F)c(C(=O)N3C[C@H](F)CCC3c3ccc(C(F)(F)F)cn3)cc2n2cncc12 (mixture of isomers) [Ff-228, (4-amino-7-fluoroimidazo[1,5-a]quinoxalin-8-yl)((5R)-5-fluoro-2-(5-(trifluoromethyl)pyridin-2-yl)piperidin-1-yl)methanone]	< 100 nM
C[C@H]1CCN(C(=O)c2cc3c(cc2F)nc(N)c2cncn23)[C@@H](c2ccc(C(F)(F)F)cc2)C1 (racemic) [Ff-241, Rac-(4-amino-7-fluoroimidazo[1,5-a]quinoxalin-8-yl)((2R,4S)-4-methyl-2-(4-(trifluoromethyl)phenyl)piperidin-1-yl)methanone]	100 to 1000 nM
Nc1nc2ccc(C(=O)N3CCC[C@@H]4Cc5cc(C(F)(F)F)ccc5[C@@H]43)cc2n2cncc12 (racemic) [Ff-249, Rac-(4-aminoimidazo[1,5-a]quinoxalin-8-yl)((4aR,9bR)-7-(trifluoromethyl)-2,3,4,4a,5,9b-hexahydro-1H-indeno[1,2-b]pyridin-1-yl)methanone]	100 to 1000 nM
Nc1nc2cnc(C(=O)N3CCC[C@@H]4Cc5cc(C(F)(F)F)ccc5[C@@H]43)cc2n2cncc12 (racemic) [Ff-250, Rac-(4-aminoimidazo[1,5-a]pyrido[3,4-e]pyrazin-8-yl)((4aR,9bR)-7-(trifluoromethyl)-2,3,4,4a,5,9b-hexahydro-1H-indeno[1,2-b]pyridin-1-yl)methanone]	< 100 nM
